Test results taken from patent US9327005B1, “Compositions and methods for improved energy metabolism” (VDF FutureCeuticals, Inc., priority 2012, dated 2016).

Test system: freshly isolated human peripheral blood cells
Test: Seahorse oxygen consumption rate (OCR)
Format: cell-based
Settings: average
Method: Testing was performed using Seahorse technology in order to measure real-time changes in oxygen consumption by freshly isolated human peripheral blood cells.
All results were generated on freshly isolated blood cells from different and randomly selected healthy and fasted donors. […] These two values were used as positive and negative controls, respectively, in order to ensure quality of test, viability and metabolic functionality of fresh human blood cells. Oligomycin inhibits oxygen metabolism. In presence of this substance, cells generate ATP/energy mainly via glycolysis. […] To ensure quality of human blood cells, blood was collected directly into Cell Preparation Tube with Sodium Citrate, Becton Dickinson Inc. Peripheral blood cells were isolated during 45 minutes following Protocol provided by Becton Dickinson. Blood cells were cultivated during each experiment in Seahorse media supplemented with 5 mM of glucose. Glucose concentration was adjusted from 11 mM to 5 mM to avoid testing of samples under hyperglycemic conditions (typically glucose at concentration lower than 95 mg/dl).
Cells were isolated from healthy fasted subject, and treated with apple extract at indicated dose. […] Rate 7, 8 and 14 represent time-points: 4, 8 and 32 minutes after the treatment, respectively.

Row | Structure (SMILES) | inhibition of OCR (negative control) [%] | increase in OCR (positive control) [%]
1 | CC[C@H]1/C=C/C=C/C[C@@H](C)[C@H](O)[C@@](C)(O)C(=O)[C@@H](C)[C@H](O)[C@@H](C)C(=O)[C@@H](C)[C@H](O)[C@@H](C)/C=C/C(=O)O[C@@H]2[C@H](C)[C@H](CC1)O[C@]1(CC[C@H](C)[C@H](C[C@@H](C)O)O1)[C@H]2C [oligomycin] | 86 | –
2 | N#CC(C#N)=NNc1ccc(OC(F)(F)F)cc1 [FCCP] | – | 397
